Test results: patent US7408048B2, “Mammalian grainyhead transcription factors” (Melbourne Health, priority 2002, dated 2008)
Marks after values point to notes of the source that are not given here.

B1: bom: brother of mammalian grainyhead; region comparable to first 93 amino acids of p70 MGR fused to GAL4 DNA binding domain (protein)
chain: MSQESDNNKRLVALVPMPSDPPFNTRRAYTSEDEAWKSYLENPLTAATKAMMSINGDEDSAAALGLLYDYYKVPRDKRLLSVSKASDSQEDQEKRNCLGTSEAQSNLSGGENRVQVLKTVPVNLSLNQDHLENSKREQYSISFPESSAIIPVSGITVVKAEDFTPVFMAPPVHYPRGDGEEQRVVIFEQTQYDVPSLATHSAYLKDDQRSTPDSTYSESFKDAATEKFRSASVGAEEYMYDQTSSGTFQYTLEATKSLRQKQGEGPMTYLNKGQFYAITLSETGDNKCFRHPISKVRSVVMVVFSEDKNRDEQLKYWKYWHSRQHTAKQRVLDIADYKESFNTIGNIEEIAYNAVSFTWDVNEEAKIFITVNCLSTDFSSQKGVKGLPLMIQIDTYSYNNRSNKPIHRAYCQIKVFCDKGAERKIRDEERKQNRKKGKGQASQTQCNSSSDGKLAAIPLQKKSDITYFKTMPDLHSQPVLFIPDVHFANLQRTGQVYYNTDDEREGGSVLVKRMFRPMEEEFGPVPSKQMKEEGTKRVLLYVRKETDDVFDALMLKSPTVKGLMEAISEKYGLPVEKIAKLYKKSKKGILVNMDDNIIEHYSNEDTFILNMESMVEGFKVTLMEI
modifications: human
B2: p49 mgr: human mammalian Grainyhead isoform p49, SEQ ID NO:2; full length fused to GAL4 DNA binding domain (protein)
chain: MASLWESPQQCIILSPLSGWWFSIGISILTSSALVLKPQMLKGELQTRPSQRPSRKAFRRNNFEYTLEASKSLRQKPGDSTMTYLNKGQFYPITLKEVSSSEGIHHPISKVRSVIMVVFAEDKSREDQLRHWKYWHSRQHTAKQRCIDIADYKESFNTISNIEEIAYNAISFTWDINDEAKVFISVNCLSTDFSSQKGVKGLPLNIQVDTYSYNNRSNKPVHRAYCQIKVFCDKGAERKIRDEERKQSKRKVSDVKVPLLPSHKRMDITVFKPFIDLDTQPVLFIPDVHFANLQRGTHVLPIASEELEGEGSVLKRGPYGTEDDFAVPPSTKLARIEEPKRVLLYVRKESEEVFDALMLKTPSLKGLMEAISDKYDVPHDKIGKIFKKCKKGILVNMDDNIVKHYSNEDT
modifications: GAL4 DNA-binding domain fusion; human

What was measured:
[1] = test system: five concatamerized GAL4 DNA binding sites upstream of the CAT gene in 293T cell line; assay: GAL4 DNA binding domain fusion / CAT reporter co-transfection; format: cell-based; conditions: fused to GAL4 DNA binding domain, human 293T cell line
Text: Although significant sequence homology exists between grh and the shorter mgr isoforms and p70 mgr, the isoleucine rich transcriptional activation domain identified in the fly protein is not conserved. […] In view of the high degree of conservation of the first three coding exons of p70 mgr and bom, it was postulated that this could be the functional domain responsible for activation. To address this, the cDNA fragment encoding the first 93 amino acids of human p70 MGR (encoded by the first three exons) was subcloned in frame with the GAL4 DNA binding domain in a mammalian expression vector. […] These plasmids were co-transfected into the human 293T cell line with a reporter plasmid containing five concatamerized GAL4 DNA binding sites upstream of the chloramphenicol acetyltransferase (CAT) gene. The vector containing only the GAL4 DNA-BD or containing the VP16 activation domain fused to the GAL DNA-BD served as the negative and positive controls, respectively.

curly tail (ct/ct) mice = conditions: cited from earlier work
GRHL-3^−/− mice = format: in vivo, mouse; conditions: for Observed NTDs: GRHL-3^−/− embryos from GRHL-3^+/− intercrosses, given to pregnant females, embryos harvested E14.5; for Predicted NTDs: predicted from the response of ct/ct embryos; for Mean litter size / frequency of resorptions: mouse, in vivo
Experimental: GRHL-3^+/− mice were inter-crossed and folate, inositol or PBS placebo was administered to pregnant females as previously described. Embryos were harvested on E14.5 and genotyped and examined morphologically. […] The results were analysed statistically by the one-sided binomial probability test. NTDs in the curly tail mice are resistant to folate administered in early gestation. […] The effects of folate and inositol administration on pregnant GRHL-3^+/− mice previously mated with GRHL-3^+/− males was examined (Table 6). As expected, no rescue of spina bifida in GRHL-3^−/− embryos with placebo or folate treatment was observed. […] Although the numbers of embryos examined was small, the result was highly significant (p<0.001) given the 70% reduction in the incidence of spina bifida in inositol-treated ct/ct embryos. These findings indicate that GRHL-3 expression is essential for inositol-mediated rescue of folate-resistant NTDs.

human En-1 promoter [2] = assay: En-1 promoter / luciferase reporter transfection in COS cells; format: cell-based; conditions: p70 MGR expression vector vs empty vector, MGR null cell line COS
Text: (§1) FIG. 3 are representations showing that p70 MGR binds to and transactivates the human En-1promoter. (A) Identifcation of a grh consensus DNA binding site in the human En-1promoter. The consensus sequence for grh DNA binding (SEQ ID NO: 50) compiled from an alignment of the Drosophila Ultrabithorax, Dopa decarboxylase and fushi tarazu promoters was compared with the sequence of the proximal human En-1 promoter (SEQ ID NO: 49) and the Drosophilaengrailed promoter (SEQ ID NO: 48). The closed bracket indicates the extend of the grainyhead binding site in the engrailed promoter as defined by DNAseI footprinting. (B) Human p70 MGR binds 5 to the human En-1 promoter. Nuclear extract from the JEG-3 cell line was studied in an EMSA with a Ddc promoter probe in the presence of pre-immune sera (lane 1), anti-MGR specific antisera (detailed in legend to FIG. 2) (lane 2) or cold competitor DNA (lanes 3-5). A 50-fold excess of the Ddc probe was used in lane 3 and a 10- and 20-fold excess of a human En-1promoter probe in lanes 4 and 5, respectively. The migration of the MGR/DNA complex is shown by arrows. (C) Human p70 MGR transactivates the En-1promoter. […]

Drosophila PCNA promoter = assay: EMSA with JEG-3 nuclear extract, PCNA promoter probe; format: binding; conditions: anti-MGR antisera
Text: (§2) FIG. 2 is a photographic representation showing that p70 MGR binds to Drosophila gene regulatory sequences which bind grh. (A) p70 MGR binds to the Drosophila PCNA promoter. Nuclear extract from the JEG-3 cell line was studied in an EMSA with a PCNA promoter probe in the presence and absence of anti-MGR specific antisera. Antisera 611 was raised against peptides common to the p70 and p49 MGR proteins in the dimerization domain and antisera 67 was raised against unique peptides in the NH2-terminal domain of p70 MGR. The migration of the MGR complex is shown in arrows. (B) p70 MGR binds to the Drosophila dopo decarboxylase promoter. Experimental conditions were as described for (A).
(§3) To determine the extent of the functional homology between GRH and MGR, it was initially examined whether the mammalian protein could bind to the well-characterized binding sites for the Drosophila factor in the Dopa decarboxylase and PCNA gene regulatory regions (Uv et al., Mol. Cell. Biol. 17: 6727-6735, 1997; Hayashi et al., J. Biol. Chem. 274: 35080-35088, 1999). Oligonucleotide probes encompassing these sites were incubated with nuclear extract from the human placental cell line JEG-3, which expresses both isoforms of MGR at RNA and protein level and analyzed in an electrophoretic mobility shift assay (EMSA). […]

human En-1 promoter [3] = assay: EMSA competition with JEG-3 nuclear extract, En-1 promoter probe; format: binding; conditions: cold En-1 probe competing with Ddc probe
Text: as §1

[4] = test system: Drosophila dopa decarboxylase promoter; assay: EMSA with JEG-3 nuclear extract, Dopa decarboxylase promoter probe; format: binding; conditions: anti-MGR antisera
Text: as §2, §3

Molecule | transcriptional activation of the CAT gene [1] | Observed NTDs (GRHL-3^−/− mice) | Predicted NTDs (GRHL-3^−/− mice; GRHL-3^−/− embryos) [%] | Mean litter size (GRHL-3^−/− mice) | frequency of resorptions (GRHL-3^−/− mice) | further results
VP16 | transcriptional activation of the CAT gene was observed |  |  |  |  | 
O[C@H]1[C@H](O)[C@@H](O)[C@H](O)[C@@H](O)[C@H]1O [Inositol, inositol] |  | 100%* | 30 | did not differ significantly | did not differ significantly | effect on NTDs / incidence of spina bifida (curly tail (ct/ct) mice; curly tail mice, administered in early gestation / pregnancy): marked reduction; reduction in the incidence of spina bifida (curly tail (ct/ct) mice; inositol-treated ct/ct embryos): 70%; rescue of spina bifida (incidence, severity) (GRHL-3^−/− mice; GRHL-3^−/− embryos, treatment of pregnant GRHL-3^+/− mice): neither the incidence, nor severity of the spina bifida in the GRHL-3^−/− embryos was alleviated
Nc1nc2ncc(CNc3ccc(C(=O)N[C@@H](CCC(=O)O)C(=O)O)cc3)nc2c(=O)[nH]1 [Folate, folate] |  | 100% | 100 | did not differ significantly | did not differ significantly | 
p70 MGR: human mammalian Grainyhead isoform p70, SEQ ID NO:4; first 93 amino acids fused to GAL4 DNA binding domain in b240 | transcriptional activation of the CAT gene was observed |  |  |  |  | transcriptional activity of the En-1 promoter (human En-1 promoter [2]): dramatically enhanced; binding to PCNA promoter probe (Drosophila PCNA promoter): binds; binding to En-1 promoter (human En-1 promoter [3]): binds; binding to dopa decarboxylase promoter probe [4]: binds
B1 | transcriptional activation of the CAT gene was observed |  |  |  |  | 
B2 | No activation was observed |  |  |  |  | 
